We go through 42 compounds from ChEMBL document CHEMBL1122781, “[(Aminomethyl)aryloxy]acetic acid esters. A new class of high-ceiling diuretics. 1. Effects of nitrogen and aromatic nuclear substitution” (J Med Chem, 1984).

One data set concerns Rattus norvegicus. Briefly: Percent change of arterial blood pressure in spontaneously hypertensive rats at the dose of 300 mg/kg (p.o.) after 6 hr (control BP(mm Hg)=214). Particulars: route oral; call rule not given here. In kind it is functional.
With `Cl.NS(=O)(=O)c1cc(C(=O)O)c(NCc2ccco2)cc1Cl` [FUROSEMIDE HYDROCHLORIDE], the Change is recorded as -31%.

A further data set deals with Rattus norvegicus. Briefly: Oral dose necessary to produce an excretion of 2 mequiv of Na+/kg in the rat urine in the 4-h period after peroral administration. In kind it is ADME, organism-based. Particulars: in vivo.
For the compound `CCOC(=O)COc1ccc(C(=O)c2ccc(O)c(CN=C(N)N)c2)c(Cl)c1Cl`, the ED2 turned out to be 34 mg/kg.
As to `CCOC(=O)COc1ccc(C(=O)c2cc(I)c(O)c(CN)c2)c(Cl)c1Cl.Cl`, the ED2 amounted to 1 mg/kg.
Still for that read-out and setting: as for `CCOC(=O)COc1ccc(C(=O)c2ccc(O)c(CN)c2)cc1.Cl`, the figure is 10 mg/kg; as for `CCOC(=O)COc1ccc(C(=O)c2cc(Cl)c(O)c(CN)c2)c(Cl)c1Cl.Cl`, 1 mg/kg.
On to `CCOC(=O)COc1ccc(C(=O)c2cc(C)c(O)c(CN)c2)c(Cl)c1Cl.Cl`, for which the ED2 stood at 1 mg/kg.
For `CCOC(=O)COc1ccc(C(=O)c2cccc(CN)c2)c(Cl)c1Cl.Cl`, the ED2 was 12 mg/kg.
Turning to `CCOC(=O)COc1ccc(C(=O)c2ccc(O)c(CN(C)C)c2)c(Cl)c1Cl.Cl`, the ED2 worked out at 16 mg/kg.
Still for that read-out and setting: as for `CCOC(=O)COc1ccc(C(=O)c2ccc(Cl)c(CN)c2)c(Cl)c1Cl.Cl`, the figure is 50 mg/kg.
Still for that read-out and setting: next, `CCOC(=O)COc1ccc(C(=O)c2cc(CN)ccc2O)c(Cl)c1Cl.Cl`: 3 mg/kg; `CCOC(=O)COc1ccc(C(=O)c2ccc(O)c(C(C)N)c2)c(Cl)c1Cl.Cl` (stereo not given): 1.2 mg/kg; `CCOC(=O)COc1ccc(C(=O)c2ccc(O)c(CN)c2)c2ccccc12.Cl`: 15 mg/kg.
Take `CCOC(=O)COc1ccc(C(=O)c2ccc(O)c(CN)c2)cc1Cl.Cl`: the ED2 was found to be 5 mg/kg.
The same measure, in the same setting: as for `CCOC(=O)COc1ccc(C(=O)c2cc(CN)c(O)c(CN)c2)c(Cl)c1Cl.Cl`, the figure is 11 mg/kg; as for `CCOC(=O)COc1ccc(C(=O)c2ccc(O)c(CN)c2)c(Cl)c1.Cl`, 5 mg/kg; as for `CCOC(=O)COc1ccc(C(=O)c2ccc(O)c(CNO)c2)c(Cl)c1Cl.Cl`, 4 mg/kg.
`CCOC(=O)COc1ccc(C(=O)c2ccc(O)c(CN)c2)c(C)c1C.Cl`: the ED2 came out at 6 mg/kg.
For the compound `CCOC(=O)COc1ccc(C(=O)c2cc(CN(C)C)c(O)c(CN(C)C)c2)c(Cl)c1Cl.Cl`, the ED2 turned out to be 7 mg/kg.

In another data set the test system is Rattus norvegicus. Briefly: Percent change of arterial blood pressure in spontaneously hypertensive rats at the dose of 100 mg/kg (p.o.) after […] (control BP(mm Hg)=206). In kind it is functional. The following applies: route oral.
In the case of `Cl.NS(=O)(=O)c1cc(C(=O)O)c(NCc2ccco2)cc1Cl` [FUROSEMIDE HYDROCHLORIDE], the Change is reported as -11%.

The next data set relates to Rattus norvegicus. Briefly: Percent change of arterial blood pressure in spontaneously hypertensive rats at the dose of 30 mg/kg (p.o.) after […] (control BP(mm Hg)=210). In kind it is functional. Particulars: route oral.
Take `Cl.NS(=O)(=O)c1cc(C(=O)O)c(NCc2ccco2)cc1Cl` [FUROSEMIDE HYDROCHLORIDE]: the Change was -10%.

For a further data set, the system named is Rattus norvegicus. Briefly: Percent change of arterial blood pressure in spontaneously hypertensive rats at the dose of 30 mg/kg (p.o.) after 6 hr (control BP(mm Hg)=210). In kind it is functional. Particulars: route oral.
Consider `Cl.NS(=O)(=O)c1cc(C(=O)O)c(NCc2ccco2)cc1Cl` [FUROSEMIDE HYDROCHLORIDE], for which the Change is on record as -6%.

The subject of another data set is Rattus norvegicus. Briefly: Oral dose necessary to produce excretion of 2 mequiv of Na+/kg in rat urine in a 4-hr period after oral administration; inactive. In kind it is ADME, organism-based. The following applies: in vivo.
Consider `CCOC(=O)COc1ccc(C(=O)c2ccc(O)c(C(=O)O)c2)c(Cl)c1Cl`, for which the ED2 entry is on record as “Not Active”.
Same read-out and setting: as for `CCOC(=O)COc1ccc(C(=O)c2ccc(O)c(CO)c2)c(Cl)c1Cl`, the entry is “Not Active”.
Same read-out and setting: as for `CCOC(=O)COc1ccc(C(=O)c2cc(CN3CCS(=O)(=O)CC3)c(O)c(CN3CCS(=O)(=O)CC3)c2)c(Cl)c1Cl`, the entry is “Not Active”.
On the same count and under the same terms, next, `CCOC(=O)COc1ccc(C(=O)c2ccc(O)c(CNC(C)=O)c2)c(Cl)c1Cl`: “Not Active”.
Turning to `CCOC(=O)COc1ccc(C(=O)c2ccc3c(c2)CNC(=O)O3)c(Cl)c1Cl`, the ED2 result is recorded as “Not Active”.
For the compound `CN(C)Cc1cc(C(=O)c2ccc(OCC(=O)O)c(Cl)c2Cl)ccc1O`, the ED2 entry is “Not Active”.
Regarding `CCOC(=O)COc1ccc(C(=O)c2ccc(O)c(C(N)=O)c2)c(Cl)c1Cl`, the ED2 entry is given as “Not Active”.
As to `CCOC(=O)COc1ccc(C(=O)c2ccc(O)c(CN3CCS(=O)(=O)CC3)c2)c(Cl)c1Cl`, the ED2 entry is “Not Active”.
In the case of `CCOC(=O)COc1ccc(C(=O)c2ccc(O)c(C[N+](C)(C)C)c2)c(Cl)c1Cl.[Cl-]`, the ED2 result is reported as “Not Active”.
Same read-out and setting: as for `CN(C)Cc1cc(C(=O)c2ccc(OCC(=O)O)c(Cl)c2Cl)cc(CN(C)C)c1O.Cl`, the entry is “Not Active”; as for `CCOC(=O)COc1ccc(C(=O)c2ccc(CN)c(OC)c2)c(Cl)c1Cl.Cl`, “Not Active”.
`Br.CCOC(=O)COc1ccc(C(=O)c2ccc(OC)c(CN)c2)c(Cl)c1Cl`: the ED2 result is recorded as “Not Active”.
On the same count and under the same terms, as for `Cl.NCc1cc(C(=O)c2ccc(OCC(=O)O)c(Cl)c2Cl)ccc1O`, the entry is “Not Active”.
The same measure, in the same setting: as for `CCOC(=O)COc1ccc(C(=O)c2ccc(CN)cc2)c(Cl)c1Cl.Cl`, the entry is “Not Active”.
With `CCOC(=O)COc1ccc(C(=O)c2cccc(CN)c2O)c(Cl)c1Cl.Cl`, the ED2 result is “Not Active”.
Same read-out and setting: as for `CCOC(=O)COc1ccc(C(=O)c2cc(CN3CCCCC3)c(O)c(CN3CCCCC3)c2)c(Cl)c1Cl.Cl`, the entry is “Not Active”.
The same measure, in the same setting: as for `CCOC(=O)COc1ccc(C(=O)c2ccc(O)c(CN3CCCCC3)c2)c(Cl)c1Cl.Cl`, the entry is “Not Active”; as for `CCOC(=O)COc1ccc(C(=O)c2ccc(O)c(CN3CCCC3)c2)c(Cl)c1Cl.Cl`, “Not Active”; as for `CCOC(=O)COc1ccc(C(=O)c2ccc(O)c(CN(CC)CC)c2)c(Cl)c1Cl.Cl`, “Not Active”.
For the compound `Br.CCOC(=O)COc1ccc(C(=O)c2ccc(CN)c(O)c2)c(Cl)c1Cl`, the ED2 result is “Not Active”.
Regarding `CCOC(=O)COc1ccc(C(=O)c2ccc(O)c(CN3CCOCC3)c2)c(Cl)c1Cl.Cl`, the ED2 entry is reported as “Not Active”.
Same read-out and setting: as for `CCOC(=O)COc1ccc(C(=O)c2cc(CN3CCCC3)c(O)c(CN3CCCC3)c2)c(Cl)c1Cl.Cl`, the entry is “Not Active”; as for `CCOC(=O)COc1ccc(C(=O)c2cc(CN(CC)CC)c(O)c(CN(CC)CC)c2)c(Cl)c1Cl.Cl`, “Not Active”.
Same read-out and setting: as for `CCOC(=O)COc1ccc(C(=O)c2cc(CN3CCOCC3)c(O)c(CN3CCOCC3)c2)c(Cl)c1Cl.Cl`, the entry is “Not Active”.

For the next data set, the system named is Rattus norvegicus. Briefly: Percent change of arterial blood pressure in spontaneously hypertensive rats at the dose of 100 mg/kg (p.o.) after 6 hr (control BP(mm Hg)=206). In kind it is functional. The following applies: route oral.
In the case of `Cl.NS(=O)(=O)c1cc(C(=O)O)c(NCc2ccco2)cc1Cl` [FUROSEMIDE HYDROCHLORIDE], the Change is recorded as -3%.

A further data set concerns Rattus norvegicus. Briefly: Percent change of arterial blood pressure in spontaneously hypertensive rats at the dose of 30 mg/kg (p.o.) after 24 hr (control BP(mm Hg)=210). In kind it is functional. The following applies: route oral.
Turning to `Cl.NS(=O)(=O)c1cc(C(=O)O)c(NCc2ccco2)cc1Cl` [FUROSEMIDE HYDROCHLORIDE], the Change is 1%.

Another data set concerns Rattus norvegicus. Briefly: Percent change of arterial blood pressure in spontaneously hypertensive rats at the dose of 100 mg/kg (p.o.) after 24 hr (control BP(mm Hg)=206). Particulars: route oral. In kind it is functional.
With `Cl.NS(=O)(=O)c1cc(C(=O)O)c(NCc2ccco2)cc1Cl` [FUROSEMIDE HYDROCHLORIDE], the Change is reported as -12%.

Another data set concerns Rattus norvegicus. Briefly: Percent change of arterial blood pressure in spontaneously hypertensive rats at the dose of 300 mg/kg (p.o.) after […] (control BP(mm Hg)=214). In kind it is functional. The following applies: route oral.
As for `Cl.NS(=O)(=O)c1cc(C(=O)O)c(NCc2ccco2)cc1Cl` [FUROSEMIDE HYDROCHLORIDE], the Change is -21%.

Another data set relates to Rattus norvegicus. Briefly: Percent change of arterial blood pressure in spontaneously hypertensive rats at the dose of 300 mg/kg (p.o.) after 24 h (control BP(mm Hg)=214). In kind it is functional. The following applies: route oral.
As to `Cl.NS(=O)(=O)c1cc(C(=O)O)c(NCc2ccco2)cc1Cl` [FUROSEMIDE HYDROCHLORIDE], the Change is on record as -37%.
